Data from patent US20100076015A1, “Aminopyridine Derivatives” (VANTIA LIMITED, priority 2008, published 2010).

Assays:
Type in all cases: biochemical
plasma kallikrein = plasma kallikrein (Homo sapiens, UniProt P03952); test: Enzyme selectivity: plasma kallikrein (chromogenic substrate S-2302); conditions: chromogenic substrate S-2302, 37° C.
Experimental: (§1) Determination of Enzyme Selectivity
(§2) Selected compounds were further screened for inhibitory activity against other trypsin-like serine proteases using the appropriate enzyme and chromogenic substrate (Chromogenix AB). The activity against the following human enzymes was tested (substrate in brackets):—plasma kallikrein (S-2302), thrombin (S-2238), plasmin (S-2390) and trypsin (S-2222). The enzyme was incubated at 37° C. with the chromogenic substrate. Residual enzyme activity (initial rate of reaction) was determined by measuring the change in optical absorbance at 405 nm.

Human KLK1 = biological target: T1, Human KLK1 (Homo sapiens, UniProt P06870); test: Determination of the IC50 for KLK1 (fluorogenic substrate H-DVal-Leu-Arg-AFC); conditions: 37° C.
T1 construct: purchased Callbiochem (Calbiochem)
T1 sequence (P06870 25-262): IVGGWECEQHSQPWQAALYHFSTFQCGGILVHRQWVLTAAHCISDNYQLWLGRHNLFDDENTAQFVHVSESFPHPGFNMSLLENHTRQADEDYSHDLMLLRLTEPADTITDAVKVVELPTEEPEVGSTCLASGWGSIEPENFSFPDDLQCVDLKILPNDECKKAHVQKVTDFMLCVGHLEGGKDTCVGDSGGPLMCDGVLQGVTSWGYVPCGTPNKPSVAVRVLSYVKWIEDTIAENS
Method in brief: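 IC50 values reflect residual human KLK1 activity, read as initial rate from optical absorbance change at 410 nm. Incubations ran at 37° C with H-DVal-Leu-Arg-AFC as substrate across a compound concentration series.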

thrombin = thrombin (Homo sapiens, UniProt P00734); test: Enzyme selectivity: thrombin (chromogenic substrate S-2238); conditions: chromogenic substrate S-2238, 37° C.
Experimental: as §1, §2

trypsin = test: Enzyme selectivity: trypsin (chromogenic substrate S-2222); conditions: human enzyme, chromogenic substrate S-2222, 37° C.
Experimental: as §1, §2

plasmin = plasmin (Homo sapiens, UniProt P00747); test: Enzyme selectivity: plasmin (chromogenic substrate S-2390); conditions: chromogenic substrate S-2390, 37° C.
Sequence of plasmin (P00747 581-810 limits assumed): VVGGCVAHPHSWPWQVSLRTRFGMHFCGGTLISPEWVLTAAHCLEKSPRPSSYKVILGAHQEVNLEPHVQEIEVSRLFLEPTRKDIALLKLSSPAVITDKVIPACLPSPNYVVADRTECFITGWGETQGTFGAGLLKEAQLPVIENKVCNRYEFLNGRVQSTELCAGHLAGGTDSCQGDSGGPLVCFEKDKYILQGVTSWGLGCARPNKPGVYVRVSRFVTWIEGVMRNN
Sequence of plasmin (P00747 97-580 partner limits assumed): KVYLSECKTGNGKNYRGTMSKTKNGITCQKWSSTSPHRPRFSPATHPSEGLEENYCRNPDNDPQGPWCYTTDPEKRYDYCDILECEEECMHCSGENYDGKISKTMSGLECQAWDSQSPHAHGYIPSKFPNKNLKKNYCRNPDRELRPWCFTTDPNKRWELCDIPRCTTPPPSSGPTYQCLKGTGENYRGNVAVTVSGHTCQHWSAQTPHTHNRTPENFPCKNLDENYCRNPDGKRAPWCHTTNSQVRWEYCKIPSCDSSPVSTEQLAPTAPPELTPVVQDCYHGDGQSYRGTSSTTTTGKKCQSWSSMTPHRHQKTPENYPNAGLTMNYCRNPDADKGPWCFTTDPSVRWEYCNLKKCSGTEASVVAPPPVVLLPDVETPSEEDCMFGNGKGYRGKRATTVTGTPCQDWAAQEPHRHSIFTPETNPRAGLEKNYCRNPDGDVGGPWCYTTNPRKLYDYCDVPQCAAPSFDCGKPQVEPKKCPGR
Experimental: as §1, §2

Sequence of plasma kallikrein (P03952 20-638): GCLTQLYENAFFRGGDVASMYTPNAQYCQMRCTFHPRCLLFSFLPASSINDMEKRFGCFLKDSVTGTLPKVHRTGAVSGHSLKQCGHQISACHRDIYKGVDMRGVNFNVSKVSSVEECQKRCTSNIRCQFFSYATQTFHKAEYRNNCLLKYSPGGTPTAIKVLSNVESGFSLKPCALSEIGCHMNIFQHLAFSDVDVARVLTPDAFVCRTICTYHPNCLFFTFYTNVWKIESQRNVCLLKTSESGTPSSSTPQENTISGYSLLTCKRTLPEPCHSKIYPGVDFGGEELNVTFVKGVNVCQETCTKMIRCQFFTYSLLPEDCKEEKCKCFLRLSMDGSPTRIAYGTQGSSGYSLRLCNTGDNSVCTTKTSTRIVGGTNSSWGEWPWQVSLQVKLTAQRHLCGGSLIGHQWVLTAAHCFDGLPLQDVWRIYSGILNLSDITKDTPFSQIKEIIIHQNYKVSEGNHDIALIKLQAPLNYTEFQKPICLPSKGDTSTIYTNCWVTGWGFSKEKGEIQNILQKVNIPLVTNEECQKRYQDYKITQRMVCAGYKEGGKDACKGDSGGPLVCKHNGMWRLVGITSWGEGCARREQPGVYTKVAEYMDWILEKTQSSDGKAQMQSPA

For `CN1CCC[C@@H]1C(=O)N[C@@H](Cc1ccc(Cl)c(Cl)c1)C(=O)NCc1ccc(N)nc1` [Example 90, (R)-1-Methyl-pyrrolidine-2-carboxylic acid [(S)-1-[(6-amino-pyridin-3-ylmethyl)-carbamoyl]-2-(3,4-dichloro-phenyl)-ethyl]-amide], the IC50 (plasma kallikrein) was > 10 µM, the IC50 (Human KLK1) was 0.00086 µM and the IC50 (thrombin) was > 10 µM. For the same compound, the IC50 (trypsin) was > 10 µM and the IC50 (plasmin) was > 10 µM.

For `CN1CCC[C@@H]1C(=O)N[C@@H](Cc1cccc(C(F)(F)F)c1)C(=O)NCc1ccc(N)nc1` [Example 91, (R)-1-Methyl-pyrrolidine-2-carboxylic acid [(S)-1-[(6-amino-pyridin-3-ylmethyl)-carbamoyl]-2-(3-trifluoromethyl-phenyl)-ethyl]-amide], the IC50 (plasma kallikrein) was > 10 µM, the IC50 (Human KLK1) was 0.0021 µM and the IC50 (thrombin) was > 10 µM. The IC50 (trypsin) was > 10 µM and the IC50 (plasmin) was > 10 µM.

For `CN1CCC[C@@H]1C(=O)N[C@@H](Cc1cccc2ccccc12)C(=O)NCc1ccc(N)nc1` [Example 92, (R)-1-Methyl-pyrrolidine-2-carboxylic acid {(S)-1-[(6-amino-pyridin-3-ylmethyl)-carbamoyl]-2-naphthalen-1-yl-ethyl}-amide], the IC50 (plasma kallikrein) was > 10 µM, the IC50 (Human KLK1) was 0.0036 µM and the IC50 (thrombin) was > 10 µM. For the same compound, the IC50 (trypsin) was > 10 µM and the IC50 (plasmin) was > 10 µM.

In the case of `CCN1CCC[C@@H]1C(=O)N[C@@H](Cc1ccc(F)c(F)c1)C(=O)NCc1ccc(N)nc1` [Example 131, (R)-1-Ethyl-pyrrolidine-2-carboxylic acid [(S)-1-[(6-amino-pyridin-3-ylmethyl)-carbamoyl]-2-(3,4-difluoro-phenyl)-ethyl]-amide], the IC50 (plasma kallikrein) is reported as > 10 µM, the IC50 (Human KLK1) is reported as 0.00054 µM and the IC50 (thrombin) is reported as > 10 µM. For the same compound, the IC50 (trypsin) was > 10 µM and the IC50 (plasmin) was > 10 µM.

In the case of `CN1CCCC[C@@H]1C(=O)N[C@@H](Cc1ccc(F)cc1)C(=O)NCc1ccc(N)nc1` [Example 145, (R)-1-Methyl-piperidine-2-carboxylic acid [(S)-1-[(6-amino-pyridin-3-ylmethyl)-carbamoyl]-2-(4-fluoro-phenyl)-ethyl]-amide], the IC50 (plasma kallikrein) is reported as > 10 µM, the IC50 (Human KLK1) is reported as 0.0105 µM and the IC50 (thrombin) is reported as > 10 µM. The IC50 (trypsin) was > 10 µM and the IC50 (plasmin) was > 10 µM.

`CC(C)N(CC(=O)N[C@@H](Cc1ccc(F)c(F)c1)C(=O)NCc1ccc(N)nc1)C(C)C` [Example 157, (S)—N-(6-Amino-pyridin-3-ylmethyl)-3-(3,4-difluoro-phenyl)-2-(2-diisopropylamino-acetylamino)-propionamide] was tested, and the IC50 (plasma kallikrein) was > 10 µM, the IC50 (Human KLK1) was 0.123 µM and the IC50 (thrombin) was > 10 µM. The IC50 (trypsin) was > 10 µM and the IC50 (plasmin) was > 10 µM.

In the case of `CC(C)N(C)[C@@H](C)C(=O)N[C@@H](Cc1ccc(F)c(F)c1)C(=O)NCc1ccc(N)nc1` [Example 176, (S)—N-[(S)-1-[(6-Amino-pyridin-3-ylmethyl)-carbamoyl]-2-(3,4-difluoro-phenyl)-ethyl]-2-(isopropyl-methyl-amino)-propionamide], the IC50 (plasma kallikrein) is reported as > 10 µM, the IC50 (Human KLK1) is reported as 0.004 µM and the IC50 (thrombin) is reported as > 10 µM. For the same compound, the IC50 (trypsin) was > 10 µM and the IC50 (plasmin) was > 10 µM.

In the case of `CCC(C)[C@H](C(=O)N[C@@H](Cc1csc2ccccc12)C(=O)NCc1ccc(N)nc1)N(C)S(C)(=O)=O` (stereo partly drawn) [Example 213, (R)-2-(Methanesulfonyl-methyl-amino)-3-methyl-pentanoic acid {(S)-1-[(6-amino-pyridin-3-ylmethyl)-carbamoyl]-2-benzo[b]thiophen-3-yl-ethyl}-amide], the IC50 (plasma kallikrein) is reported as > 10 µM, the IC50 (Human KLK1) is reported as 0.0028 µM and the IC50 (thrombin) is reported as > 10 µM. The IC50 (trypsin) was > 10 µM and the IC50 (plasmin) was > 10 µM.

With `Cc1cc[nH]c1C(=O)N[C@@H](Cc1ccc(F)c(F)c1)C(=O)NCc1ccc(N)nc1` [Example 226, 3-Methyl-1H-pyrrole-2-carboxylic acid [(S)-1-[(6-amino-pyridin-3-ylmethyl)-carbamoyl]-2-(3,4-difluoro-phenyl)-ethyl]-amide] the IC50 (plasma kallikrein) was > 10 µM, the IC50 (Human KLK1) was 0.0101 µM and the IC50 (thrombin) was > 10 µM. For the same compound, the IC50 (trypsin) was > 10 µM and the IC50 (plasmin) was > 10 µM.

For `Nc1ccc(CNC(=O)[C@H](CC2CCCC3CCCCC32)NC(=O)c2ccc[nH]2)cn1` (stereo partly drawn) [Example 227, 1H-Pyrrole-2-carboxylic acid [(S)-1-[(6-amino-pyridin-3-ylmethyl)-carbamoyl]-2-(decahydro-naphthalen-1-yl)-ethyl]-amide], the IC50 (plasma kallikrein) was > 10 µM, the IC50 (Human KLK1) was 0.0053 µM and the IC50 (thrombin) was > 10 µM. For the same compound, the IC50 (trypsin) was > 10 µM and the IC50 (plasmin) was > 10 µM.

For `Nc1ccc(CNC(=O)[C@H](Cc2cccc3ccccc23)NC(=O)c2ccc[nH]2)cn1` [Example 228, 1H-Pyrrole-2-carboxylic acid {(S)-1-[(6-amino-pyridin-3-ylmethyl)-carbamoyl]-2-naphthalen-1-yl-ethyl}-amide], the IC50 (plasma kallikrein) was > 10 µM, the IC50 (Human KLK1) was 0.0321 µM and the IC50 (thrombin) was > 10 µM. For the same compound, the IC50 (trypsin) was > 10 µM and the IC50 (plasmin) was > 10 µM.

With `Nc1ccc(CNC(=O)[C@H](Cc2cccc(C(F)(F)F)c2)NC(=O)c2ccc[nH]2)cn1` [Example 229, 1H-Pyrrole-2-carboxylic acid [(S)-1-[(6-amino-pyridin-3-ylmethyl)-carbamoyl]-2-(3-trifluoromethyl-phenyl)-ethyl]-amide] the IC50 (plasma kallikrein) was > 10 µM, the IC50 (Human KLK1) was 0.0034 µM and the IC50 (thrombin) was > 10 µM. The IC50 (trypsin) was > 10 µM and the IC50 (plasmin) was > 10 µM.

`Cc1cc(C)c(C(=O)N[C@@H](Cc2cccc3ccccc23)C(=O)NCc2ccc(N)nc2)[nH]1` [Example 231, 3,5-Dimethyl-1H-pyrrole-2-carboxylic acid {(S)-1-[(6-amino-pyridin-3-ylmethyl)-carbamoyl]-2-naphthalen-1-yl-ethyl}-amide] was tested, and the IC50 (plasma kallikrein) was > 10 µM, the IC50 (Human KLK1) was 0.0031 µM and the IC50 (thrombin) was > 10 µM. For the same compound, the IC50 (trypsin) was > 10 µM and the IC50 (plasmin) was > 10 µM.

For `Cc1cc(C)c(C(=O)N[C@@H](Cc2cccc(C(F)(F)F)c2)C(=O)NCc2ccc(N)nc2)[nH]1` [Example 232, 3,5-Dimethyl-1H-pyrrole-2-carboxylic acid [(S)-1-[(6-amino-pyridin-3-ylmethyl)-carbamoyl]-2-(3-trifluoromethyl-phenyl)-ethyl]-amide], the IC50 (plasma kallikrein) was > 10 µM, the IC50 (Human KLK1) was 0.0015 µM and the IC50 (thrombin) was > 10 µM. The IC50 (trypsin) was > 10 µM and the IC50 (plasmin) was > 10 µM.

In the case of `Cc1cc(C)c(C(=O)N[C@@H](Cc2ccc(Cl)c(Cl)c2)C(=O)NCc2ccc(N)nc2)[nH]1` [Example 233, 3,5-Dimethyl-1H-pyrrole-2-carboxylic acid [(S)-1-[(6-amino-pyridin-3-ylmethyl)-carbamoyl]-2-(3,4-dichloro-phenyl)-ethyl]-amide], the IC50 (plasma kallikrein) is reported as > 10 µM, the IC50 (Human KLK1) is reported as 0.0021 µM and the IC50 (thrombin) is reported as > 10 µM. For the same compound, the IC50 (trypsin) was > 10 µM and the IC50 (plasmin) was > 10 µM.

For `Cc1cccc(C[C@H](NC(=O)c2[nH]c(C)cc2C)C(=O)NCc2ccc(N)nc2)c1` [Example 234, 3,5-Dimethyl-1H-pyrrole-2-carboxylic acid {(S)-1-[(6-amino-pyridin-3-ylmethyl)-carbamoyl]-2-m-tolyl-ethyl}-amide], the IC50 (plasma kallikrein) was > 10 µM, the IC50 (Human KLK1) was 0.0032 µM and the IC50 (thrombin) was > 10 µM. For the same compound, the IC50 (trypsin) was > 10 µM and the IC50 (plasmin) was > 10 µM.

With `Cc1cc(C)c(C(=O)N[C@@H](Cc2cccc(Cl)c2)C(=O)NCc2ccc(N)nc2)[nH]1` [Example 235, 3,5-Dimethyl-1H-pyrrole-2-carboxylic acid [(S)-1-[(6-amino-pyridin-3-ylmethyl)-carbamoyl]-2-(3-chloro-phenyl)-ethyl]-amide] the IC50 (plasma kallikrein) was > 10 µM, the IC50 (Human KLK1) was 0.0024 µM and the IC50 (thrombin) was > 10 µM. The IC50 (trypsin) was > 10 µM and the IC50 (plasmin) was > 10 µM.

With `Cc1cc(C)c(C(=O)N[C@@H](Cc2ccc(F)cc2)C(=O)NCc2ccc(N)nc2)[nH]1` [Example 242, 3,5-Dimethyl-1H-pyrrole-2-carboxylic acid [(S)-1-[(6-amino-pyridin-3-ylmethyl)-carbamoyl]-2-(4-fluoro-phenyl)-ethyl]-amide] the IC50 (plasma kallikrein) was > 10 µM, the IC50 (Human KLK1) was 0.0044 µM and the IC50 (thrombin) was > 10 µM. For the same compound, the IC50 (trypsin) was > 10 µM and the IC50 (plasmin) was > 10 µM.

For `Cc1cc(C)c(C(=O)N[C@@H](Cc2ccc(F)c(F)c2)C(=O)NCc2ccc(N)nc2)[nH]1` [Example 243, 3,5-Dimethyl-1H-pyrrole-2-carboxylic acid [(S)-1-[(6-amino-pyridin-3-ylmethyl)-carbamoyl]-2-(3,4-difluoro-phenyl)-ethyl]-amide], the IC50 (plasma kallikrein) was > 10 µM, the IC50 (Human KLK1) was 0.0034 µM and the IC50 (thrombin) was > 10 µM. For the same compound, the IC50 (trypsin) was > 10 µM and the IC50 (plasmin) was > 10 µM.

In the case of `Cc1cc(C)c(C(=O)N[C@@H](Cc2cccc(C(F)(F)F)c2)C(=O)NCc2ccc(N)nc2C)[nH]1` [Example 277, 3,5-Dimethyl-1H-pyrrole-2-carboxylic acid [(S)-1-[(6-amino-2-methyl-pyridin-3-ylmethyl)-carbamoyl]-2-(3-trifluoromethyl-phenyl)-ethyl]-amide], the IC50 (plasma kallikrein) is reported as > 10 µM, the IC50 (Human KLK1) is reported as 0.0009 µM and the IC50 (thrombin) is reported as > 10 µM. The IC50 (trypsin) was > 10 µM and the IC50 (plasmin) was > 10 µM.

With `CCN(CC)[C@@H](C)C(=O)N[C@@H](Cc1ccc(F)c(F)c1)C(=O)NCc1ccc(N)nc1` [Example 355, (S)—N-[(S)-1-[(6-Amino-pyridin-3-ylmethyl)-carbamoyl]-2-(3,4-difluoro-phenyl)-ethyl]-2-diethylamino-propionamide] the IC50 (plasma kallikrein) was > 10 µM, the IC50 (Human KLK1) was 0.0025 µM and the IC50 (thrombin) was > 10 µM. For the same compound, the IC50 (trypsin) was > 10 µM and the IC50 (plasmin) was > 10 µM.

`CC1CCCC(C)N1CC(=O)N[C@@H](Cc1ccc(F)c(F)c1)C(=O)NCc1ccc(N)nc1` (stereo partly drawn) [Example 365, (S)—N-(6-Amino-pyridin-3-ylmethyl)-3-(3,4-difluoro-phenyl)-2-[2-(2,6-dimethyl-piperidin-1-yl)-acetylamino]-propionamide] was tested, and the IC50 (plasma kallikrein) was > 10 µM, the IC50 (Human KLK1) was 0.0025 µM and the IC50 (thrombin) was > 10 µM. The IC50 (trypsin) was > 10 µM and the IC50 (plasmin) was > 10 µM.
